The text below walks through data of patent publication US7964624B1, “Inhibitors of serine proteases” (priority 2005, dated 2011).

In one experiment the target is T1, HCV NS3 protease domain (Hepatitis C virus genotype 1b, UniProt Q9WMX2).
T1 construct: The first 181 amino acids of NS3 (residues 1027-1207 of the viral polyprotein); hexa-histidine (C); made in house; host or cells: E. coli BL21/DE3 pLysS
Briefly: biochemical. Conditions: Enzyme Assay 1 (HCV NS3 Protease Domain Peptide Cleavage Assay) activity, apparent Ki class.

In experiment [1] the target is T2, full-length hepatitis C viral protein NS3•4A (Hepatitis C virus genotype 1a, UniProt P27958).
T2 construct: hexa-histidine (N); made in house; host or cells: Sf9 insect cells (baculovirus, pVL1392)
Briefly: biochemical. Details: species or system HCV sub-type strain 1a. Conditions: Enzyme Assay 2 (HCV NS3 Peptide Cleavage Assay) activity, apparent Ki class.

Structures are written as SMILES.

Take `CCC[C@H](NC(=O)[C@@H]1C[C@]2(CC(c3cccc(Cl)c3)=NO2)CN1C(=O)[C@@H](NC(=O)CC1CCCCC1)C(C)(C)C)C(=O)C(=O)N1CCCCC1` [Compound 568]: the Ki (at HCV NS3 protease domain; in experiment [1]) was greater than 500 nM throughout.
In the case of `CCC[C@H](NC(=O)[C@@H]1C[C@]2(CC(c3cccc(Cl)c3)=NO2)CN1C(=O)[C@@H](NC(=O)CC1CC2CCC1C2)C(C)(C)C)C(=O)C(=O)NC1CC1` (stereo partly shown) [Compound 467], the Ki at HCV NS3 protease domain was 100 to 500 nM; in experiment [1], less than 100 nM.
Consider `CCC[C@H](NC(=O)[C@@H]1C[C@]2(CC(c3cccc(Cl)c3)=NO2)CN1C(=O)[C@@H](NC(=O)CC1CCCCC1)C(C)(C)C)C(=O)C(=O)N1CCC1` [Compound 79], for which the Ki on HCV NS3 protease domain is 100 to 500 nM; in experiment [1], less than 100 nM.
Taken in the same sequence, the figures for `CCC[C@H](NC(=O)[C@@H]1C[C@]2(CC(c3cccc(Cl)c3)=NO2)CN1C(=O)[C@@H](NC(=O)[C@@H]1CCC(=O)N1Cc1cccc(Cl)c1)C(C)(C)C)C(=O)C(=O)NC1CC1` [Compound 377] were 100 to 500 nM and less than 100 nM.
Consider `CCC[C@H](NC(=O)[C@@H]1C[C@]2(CC(c3cccc(Cl)c3)=NO2)CN1C(=O)[C@@H](NC(=O)[C@@H](C)C1CCCCC1)C(C)(C)C)C(=O)C(=O)NC1CC1` [Compound 284], for which the Ki (on HCV NS3 protease domain; in experiment [1]) was 100 to 500 nM in each case.
On to `CCC[C@H](NC(=O)[C@@H]1C[C@]2(CC(c3cccc(Cl)c3)=NO2)CN1C(=O)[C@H](CSC(C)(C)C)NC(=O)CC1CCCCC1)C(=O)C(=O)NC1CC1` [Compound 437], for which the Ki (on HCV NS3 protease domain; in experiment [1]) was greater than 500 nM each time.
As for `CCC[C@H](NC(=O)[C@@H]1C[C@]2(CC(c3cccc(Cl)c3)=NO2)CN1C(=O)[C@@H](CC(=O)NC1CCCCC1)C(C)C)C(=O)C(=O)NC1CC1` [Compound 21], the Ki (on HCV NS3 protease domain; in experiment [1]) was greater than 500 nM in each case.
Regarding `CCC[C@H](NC(=O)[C@@H]1C[C@]2(CC(C(=O)c3ccccc3)=NO2)CN1C(=O)[C@@H](NC(=O)NC(C)(C)C)C(C)(C)C)C(=O)C(=O)NC1CC1` [Compound 119], the Ki (on HCV NS3 protease domain; in experiment [1]) was 100 to 500 nM each time.
